The target in assay [1] is human S1P1 (Homo sapiens (Human), UniProt P21453). Put plainly: S1P1 binding assay (33P-S1P radioligand competition, CHO cell membranes). Particulars: phosphate examples; read-out: S1P1 Binding. In short, it runs like this:
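Radioligand is 33P-S1P, competing for membranes from human S1P1-expressing CHO cells. Membranes resuspended in 50 mM HEPES pH 7.5, 100 mM NaCl, 1 mM MgCl2, 2 mM EDTA.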

The target of assay [2] is S1P3 (membranes prepared from EDG3-Gal5-bla HEK293T cells) (Homo sapiens (Human), UniProt Q99500). Put plainly: Receptor [35S] GTPγS binding assay (S1P3 GTPγS). The format is biochemical. Particulars: phosphate examples; read-out: S1P3 GTPγS. In short, it runs like this: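 Membranes (3 μg protein/well) from S1P1/CHO cells or EDG3-Gal5-bla HEK293T cells (S1P3) were incubated 45 min at room temperature with 0.2 nM final [35S]GTPγS in HEPES pH 7.5 buffer with 10 μM GDP, MgCl2 and saponin. Bound label counted after filtration; EC50 from 11-point, 3-fold dilutions.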

The target of assay [3] is S1P1 (membranes prepared from S1P1/CHO cells) (Homo sapiens (Human), UniProt P21453). Put plainly: Receptor [35S] GTPγS binding assay (S1P1 GTPγS). The class given is biochemical. Particulars: phosphate examples; read-out: S1P1 GTPγS. The gist of the method: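 Membranes from S1P1-expressing CHO cells (3 μg protein/well) incubated with compound (11-point, 3-fold dilution) and 0.2 nM final [35S]GTPγS, 45 min at room temperature. Assay buffer: 20 mM HEPES pH 7.5, 10 mM MgCl2, 150 mM NaCl, 10 μM GDP, 0.1% fatty-acid-free BSA, 10 μg/ml saponin. Filter-bound radioactivity counted by scintillation; EC50 derived.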

In assay [4] the target is hS1P1/CHO cells (Homo sapiens (Human), UniProt P21453). Put plainly: hS1P1 ERK phosphorylation (S1P1 pERK). The class given is cell-based. Particulars: phosphate examples. In short, it runs like this:
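CHO cells expressing human S1P1, serum-starved 2 h, exposed to compound in HBSS/20 mM HEPES for 7 min at 37° C. Lysates assayed for phospho-ERK by SureFire kit; response given as % activation relative to 10 μM S1P.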

pEC50, pIC50: −log10 of the molar value.

Chain of human S1P1 (P21453 whole entry): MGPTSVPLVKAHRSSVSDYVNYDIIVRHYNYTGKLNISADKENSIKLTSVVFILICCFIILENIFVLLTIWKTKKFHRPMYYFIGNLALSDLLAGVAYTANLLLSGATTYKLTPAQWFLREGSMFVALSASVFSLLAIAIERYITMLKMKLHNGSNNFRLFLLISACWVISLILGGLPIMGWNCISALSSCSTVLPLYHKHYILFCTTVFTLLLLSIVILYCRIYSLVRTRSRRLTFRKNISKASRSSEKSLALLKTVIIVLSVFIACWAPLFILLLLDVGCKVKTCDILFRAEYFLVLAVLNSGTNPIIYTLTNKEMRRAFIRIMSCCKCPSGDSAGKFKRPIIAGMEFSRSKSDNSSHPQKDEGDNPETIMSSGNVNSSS
Chain of S1P1 (membranes prepared from S1P1/CHO cells) (P21453 whole entry): as above
Chain of hS1P1/CHO cells (P21453 whole entry): as above
Chain of S1P3 (membranes prepared from EDG3-Gal5-bla HEK293T cells) (Q99500 whole entry): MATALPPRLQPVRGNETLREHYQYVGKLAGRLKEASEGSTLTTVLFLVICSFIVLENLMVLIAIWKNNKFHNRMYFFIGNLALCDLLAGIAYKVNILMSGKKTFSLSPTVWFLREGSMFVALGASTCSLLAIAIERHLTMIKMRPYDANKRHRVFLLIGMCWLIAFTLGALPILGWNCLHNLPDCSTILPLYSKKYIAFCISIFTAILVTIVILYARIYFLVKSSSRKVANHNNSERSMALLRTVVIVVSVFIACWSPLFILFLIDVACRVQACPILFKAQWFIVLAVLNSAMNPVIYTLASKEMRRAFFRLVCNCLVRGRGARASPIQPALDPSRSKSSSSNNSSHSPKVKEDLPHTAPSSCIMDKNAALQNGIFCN

Regarding `CCCC[S+]([O-])C[C@@H]1CCc2cc([C@H]3CC[C@](N)(COP(=O)(O)O)C3)ccc2C1` (stereo partly drawn) [compound 668], the pIC50 in assay [1] was > 8.00. For the same compound, the values for the pEC50 in assay [2], in assay [3] and in assay [4] were < 6.20, > 8.00 and 7.00 to 8.00, respectively.

For the compound `COc1ccc(SC[C@@H]2CCc3cc([C@H]4CC[C@](N)(COP(=O)(O)O)C4)ccc3C2)cc1` [compound 529], the pIC50 in assay [1] is > 8.00. Besides, the results for the pEC50 in assay [2], in assay [3] and in assay [4] were < 6.20, 7.00 to 8.00 and > 8.00, respectively.

In the case of `CCCCSC[C@@H]1CCc2cc([C@@H]3CC[C@](N)(COP(=O)(O)O)C3)ccc2C1` [compound 506], the pIC50 in assay [1] was > 8.00. The pEC50 in assay [2] was < 6.20; in assay [3], > 8.00; in assay [4], > 8.00.

Take `CCCCCO[C@@H]1CCc2cc([C@@H]3CC[C@](N)(COP(=O)(O)O)C3)ccc2C1` [compound 433]: the pIC50 in assay [1] is 7.00 to 8.00. Further, the values for the pEC50 in assay [2], in assay [3] and in assay [4] were < 6.20, 6.00 to 7.00 and > 8.00, respectively.

As for `CCOCC[C@@H]1CCc2cc([C@H]3CC[C@](N)(COP(=O)(O)O)C3)ccc2C1` [compound 541], the pIC50 in assay [1] was > 8.00. Further, the figures for the pEC50 in assay [2], in assay [3] and in assay [4] were < 6.20, 7.00 to 8.00 and > 8.00, respectively.

For the compound `COc1ccc(C[C@H]2CCc3cc([C@H]4CC[C@](N)(COP(=O)(O)O)C4)ccc3C2)cc1` [compound 568], in assay [1], the pIC50 was 7.00 to 8.00. Further, the pEC50 is < 6.20 in assay [2], > 8.00 in assay [3] and > 8.00 in assay [4].

Turning to `CCCCOC[C@@H]1CCc2cc([C@H]3CC[C@](N)(COP(=O)(O)O)C3)ccc2C1` [compound 447], the pIC50 in assay [1] was 7.00 to 8.00. Besides, the results for the pEC50 in assay [2], in assay [3] and in assay [4] were < 6.20, 6.00 to 7.00 and > 8.00, respectively.

`CN(C)C(=O)c1cccc(OC[C@@H]2CCc3cc([C@H]4CC[C@](N)(COP(=O)(O)O)C4)ccc3C2)c1` [compound 495]: the pIC50 in assay [1] was 7.00 to 8.00. In addition, the pEC50 is < 6.20 in assay [2], 7.00 to 8.00 in assay [3] and > 8.00 in assay [4].

Turning to `CCOc1ccc(C[C@H]2CCc3cc([C@H]4CC[C@](N)(COP(=O)(O)O)C4)ccc3C2)cc1` [compound 547], the pIC50 in assay [1] is > 8.00. The pEC50 in assay [2] is < 6.20; in assay [3], 7.00 to 8.00; in assay [4], 7.00 to 8.00.

`N[C@]1(COP(=O)(O)O)CC[C@H](c2ccc3c(c2)CC[C@@H](CSc2cccnc2)C3)C1` [compound 516]: in assay [1], the pIC50 is 7.00 to 8.00. The pEC50 in assay [2] was < 6.20; in assay [3], 7.00 to 8.00; in assay [4], > 8.00.

`NC1(COP(=O)(O)O)CC[C@H](c2ccc3c(c2)CC[C@@H](c2ccccc2)C3)C1` (single isomer, unassigned) [compound 570]: in assay [1], the pIC50 is 7.00 to 8.00. The pEC50 in assay [2] is < 6.20; in assay [3], 7.00 to 8.00; in assay [4], > 8.00.

As for `CCCCCC[C@@H]1Cc2ccc([C@H]3CC[C@](N)(COP(=O)(O)O)C3)cc2CO1` [compound 427], in assay [1], the pIC50 is 7.00 to 8.00. Also, the pEC50 in assay [2] was < 6.20; in assay [3], > 8.00; in assay [4] it was > 8.00.

As to `CC(C)(C)CSC[C@@H]1CCc2cc([C@H]3CC[C@](N)(COP(=O)(O)O)C3)ccc2C1` [compound 515], the pIC50 in assay [1] is 7.00 to 8.00. For the same compound, the pEC50 in assay [2] was < 6.20; in assay [3] it was 7.00 to 8.00; in assay [4], > 8.00.

Consider `CCCC[C@H]1CCCC2(CCc3cc([C@H]4CC[C@](N)(COP(=O)(O)O)C4)ccc3C2)O1` (stereo partly drawn) [compound 632], for which the pIC50 in assay [1] was 7.00 to 8.00. The pEC50 in assay [2] was < 6.20; in assay [3], 7.00 to 8.00; in assay [4] it was > 8.00.

Take `COc1cccc(SC[C@@H]2CCc3cc([C@H]4CC[C@](N)(COP(=O)(O)O)C4)ccc3C2)c1` [compound 528]: in assay [1], the pIC50 was 7.00 to 8.00. Further, the pEC50 in assay [2] was < 6.20; in assay [3], 6.00 to 7.00; in assay [4], 7.00 to 8.00.

Regarding `CN(C)C(=O)Cc1ccc(C[C@@H]2CCc3cc([C@H]4CC[C@](N)(COP(=O)(O)O)C4)ccc3C2)cc1` [compound 562], in assay [1], the pIC50 is 6.00 to 7.00. Also, the figures for the pEC50 in assay [2], in assay [3] and in assay [4] were < 6.20, 6.00 to 7.00 and 7.00 to 8.00, respectively.

Turning to `N[C@]1(COP(=O)(O)O)CC[C@@H](c2ccc3c(c2)CC[C@H](CSc2ccccc2)C3)C1` [compound 507], the pIC50 in assay [1] is 6.00 to 7.00. The pEC50 in assay [2] was < 6.20; in assay [3] it was 6.00 to 7.00; in assay [4] it was 7.00 to 8.00.

On to `COc1ccc(COC[C@@H]2CCc3cc([C@H]4CC[C@](N)(COP(=O)(O)O)C4)ccc3C2)cc1` [compound 482], for which, in assay [1], the pIC50 was 6.00 to 7.00. Further, the pEC50 is < 6.20 in assay [2], 7.00 to 8.00 in assay [3] and 7.00 to 8.00 in assay [4].

On to `COc1cccc(C[C@H]2CCc3cc([C@H]4CC[C@](N)(COP(=O)(O)O)C4)ccc3C2)c1` [compound 567], for which the pIC50 in assay [1] is > 8.00. Further, the pEC50 is < 6.20 in assay [2], > 8.00 in assay [3] and 7.00 to 8.00 in assay [4].

As to `C=CCOCCC[C@@H]1CCc2cc(C3CCC(N)(COP(=O)(O)O)C3)ccc2C1` (single isomer, unassigned) [compound 601], the pIC50 in assay [1] was > 8.00. Moreover, the pEC50 is < 7.00 in assay [2], 6.00 to 7.00 in assay [3] and > 8.00 in assay [4].

Take `C=CCCCOC[C@@H]1CCc2cc([C@H]3CC[C@](N)(COP(=O)(O)O)C3)ccc2C1` [compound 454]: the pIC50 in assay [1] is > 8.00. Further, the pEC50 in assay [2] is < 6.20; in assay [3], 7.00 to 8.00; in assay [4], > 8.00.

As to `CCOc1cccc(C[C@@H]2CCc3cc([C@H]4CC[C@](N)(COP(=O)(O)O)C4)ccc3C2)c1` [compound 551], the pIC50 in assay [1] was 7.00 to 8.00. For the same compound, the pEC50 is < 6.20 in assay [2], 7.00 to 8.00 in assay [3] and 7.00 to 8.00 in assay [4].

As to `N[C@]1(COP(=O)(O)O)CC[C@H](c2ccc3c(c2)CC[C@H](CSCCc2ccccc2)C3)C1` [compound 521], the pIC50 in assay [1] is > 8.00. In addition, the pEC50 in assay [2] was < 7.30; in assay [3], > 8.00; in assay [4], 7.00 to 8.00.

Take `C#CCCOCCO[C@H]1CCc2cc([C@@H]3CC[C@@](N)(COP(=O)(O)O)C3)ccc2C1` [compound 586]: the pIC50 in assay [1] is > 8.00. Moreover, the values for the pEC50 in assay [2], in assay [3] and in assay [4] were < 6.20, 7.00 to 8.00 and > 8.00, respectively.

With `N[C@@]1(COP(=O)(O)O)CC[C@@H](c2ccc3c(c2)CC[C@H](CCc2ccc4ccccc4n2)C3)C1` (single isomer, unassigned) [compound 604], the pIC50 in assay [1] is 6.00 to 7.00. Also, the values for the pEC50 in assay [2], in assay [3] and in assay [4] were < 6.20, 6.00 to 7.00 and 7.00 to 8.00, respectively.

Take `C=CCCCC[C@@H]1CCc2cc([C@H]3CC[C@](N)(COP(=O)(O)O)C3)ccc2C1` [compound 555]: the pIC50 in assay [1] is > 8.00. Besides, the pEC50 in assay [2] is < 6.20; in assay [3] it was 7.00 to 8.00; in assay [4], 7.00 to 8.00.

As to `C=CCOCCO[C@@H]1CCc2cc(C3CCC(N)(COP(=O)(O)O)C3)ccc2C1` (single isomer, unassigned) [compound 579], in assay [1], the pIC50 is 6.00 to 7.00. Moreover, the figures for the pEC50 in assay [2], in assay [3] and in assay [4] were < 6.20, 6.00 to 7.00 and 7.00 to 8.00, respectively.

`N[C@]1(COP(=O)(O)O)CC[C@H](c2ccc3c(c2)CC[C@@H](Cc2ccccc2)C3)C1` [compound 571]: the pIC50 in assay [1] is 7.00 to 8.00. Moreover, the pEC50 in assay [2] was < 6.20; in assay [3], 7.00 to 8.00; in assay [4] it was 7.00 to 8.00.

As to `C/C(=N\OCc1ccccc1)[C@@H]1CCc2cc([C@H]3CC[C@](N)(COP(=O)(O)O)C3)ccc2C1` [compound 664], the pIC50 in assay [1] is > 8.00. In addition, the pEC50 was < 6.20 in assay [2], > 8.00 in assay [3] and > 8.00 in assay [4].

As for `CCOc1cccc(CO[C@@H]2CCc3cc([C@H]4CC[C@](N)(COP(=O)(O)O)C4)ccc3C2)c1` [compound 444], the pIC50 in assay [1] is > 8.00. In addition, the pEC50 in assay [2] was < 6.20; in assay [3], > 8.00; in assay [4] it was > 8.00.

For `CC(C)=CCOC[C@@H]1CCc2cc([C@H]3CC[C@](N)(COP(=O)(O)O)C3)ccc2C1` [compound 453], in assay [1], the pIC50 is 7.00 to 8.00. Besides, the pEC50 in assay [2] is < 6.20; in assay [3] it was 7.00 to 8.00; in assay [4] it was > 8.00.

For the compound `COCCCC[C@H]1CCc2cc([C@@H]3CC[C@@](N)(COP(=O)(O)O)C3)ccc2C1` [compound 596], the pIC50 in assay [1] was > 8.00. For the same compound, the pEC50 in assay [2] is < 6.20; in assay [3] it was 7.00 to 8.00; in assay [4], > 8.00.

On to `CCCCCOC[C@H]1CCc2cc([C@H]3CC[C@](N)(COP(=O)(O)O)C3)ccc2C1` [compound 448], for which the pIC50 in assay [1] is > 8.00. Moreover, the results for the pEC50 in assay [2], in assay [3] and in assay [4] were < 6.20, > 8.00 and > 8.00, respectively.

The values are drawn from patent publication US9522888B2, “Substituted bicyclic compounds” (BRISTOL-MYERS SQUIBB COMPANY, priority 2014, dated 2016).
